A value given as a limit tells only on which side of the number the result lay.

In the experiment the target is T1, human TGR5 (Homo sapiens, UniProt Q8TDU6).
T1 construct: expressed in transfected cells; host or cells: HEK293
T1 sequence (Q8TDU6 1-330): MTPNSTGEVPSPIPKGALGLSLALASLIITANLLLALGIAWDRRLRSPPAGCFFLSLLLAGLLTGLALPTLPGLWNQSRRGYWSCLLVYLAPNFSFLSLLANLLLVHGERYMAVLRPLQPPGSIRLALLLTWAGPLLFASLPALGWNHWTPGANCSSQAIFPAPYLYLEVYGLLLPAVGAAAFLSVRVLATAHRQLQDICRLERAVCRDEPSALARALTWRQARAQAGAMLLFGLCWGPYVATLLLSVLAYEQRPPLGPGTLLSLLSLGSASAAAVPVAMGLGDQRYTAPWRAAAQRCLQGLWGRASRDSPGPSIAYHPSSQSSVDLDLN
As to the kind of experiment: Cell-based TGR5 assay (cAMP generation, HTRF). To be noted: HEK293 cells stably transfected with human TGR5; cAMP by HTRF; 30 minutes at 37° C.; read-out: pEC50 Human TGR5 (converted). Summed up:
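Read-out was HTRF detection of cAMP, converted to concentration via a standard curve and fitted (3-parameter logistic) for pEC50 and maximal response. Agonist stimulation used HEK293 cells stably transfected with human TGR5, incubated 30 min at 37° C in IBMX-containing buffer at 0.05 nM to 10 μM compound.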
As for `O=C(NCCCCCS(=O)(=O)c1ccc(Cl)c(COC2(c3cnccc3-c3ccccc3OC3CC3)CC2)c1)NC[C@H](O)[C@@H](O)[C@H](O)[C@H](O)CO` [Compound I-640, 1-{5-[4-chloro-3-({1-[4-(2-cyclopropoxyphenyl)pyridin-3-yl]cyclopropoxy}methyl)benzenesulfonyl]pentyl}-3-[(2S,3R,4R,5R)-2,3,4,5,6-pentahydroxyhexyl]urea], the EC50 was < 100 nM.
Turning to `O=C(NCCOCCS(=O)(=O)c1ccc(Cl)c(COC2(c3cnccc3-c3ccccc3OC3CC3)CC2)c1)N[C@@H](CO)[C@@H](O)[C@H](O)[C@H](O)CO` [Compound I-641, 1-(2-{2-[4-chloro-3-({1-[4-(2-cyclopropoxyphenyl)pyridin-3-yl]cyclopropoxy}methyl)benzenesulfonyl]ethoxy}ethyl)-3-[(2S,3R,4S,5R)-1,3,4,5,6-pentahydroxyhexan-2-yl]urea], the EC50 was < 100 nM.
For the compound `O=C(NCCCCC[S+]([O-])c1ccc(Cl)c(COC2(c3cnccc3-c3ccccc3OC3CC3)CC2)c1)N[C@@H](CO)[C@@H](O)[C@H](O)[C@H](O)CO` (stereo partly drawn) [Compound I-642, 1-{5-[4-chloro-3-({1-[4-(2-cyclopropoxyphenyl)pyridin-3-yl]cyclopropoxy}methyl)benzenesulfinyl]pentyl}-3-[(2S,3R,4S,5R)-1,3,4,5,6-pentahydroxyhexan-2-yl]urea], the EC50 is < 100 nM.
Regarding `O=C(NCCCCCS(=O)(=O)c1ccc(Cl)c(COC2(c3cnccc3-c3ccccc3OC3CC3)CC2)c1)N[C@@H](CO)[C@@H](O)[C@H](O)[C@H](O)CO` [Compound I-643, 1-{5-[4-chloro-3-({1-[4-(2-cyclopropoxyphenyl)pyridin-3-yl]cyclopropoxy}methyl)benzenesulfonyl]pentyl}-3-[(2S,3R,4S,5R)-1,3,4,5,6-pentahydroxyhexan-2-yl]urea], the EC50 was < 100 nM.
The same measure for `O=C(NCCOCC[S+]([O-])c1ccc(Cl)c(COC2(c3cnccc3-c3ccccc3OC3CC3)CC2)c1)N[C@@H](CO)[C@@H](O)[C@H](O)[C@H](O)CO` (stereo partly drawn) [Compound I-644, 1-(2-{2-[4-chloro-3-({1-[4-(2-cyclopropoxyphenyl)pyridin-3-yl]cyclopropoxy}methyl)benzenesulfinyl]ethoxy}ethyl)-3-[(2S,3R,4S,5R)-1,3,4,5,6-pentahydroxyhexan-2-yl]urea]: < 100 nM.
Turning to `Cc1ccc(SCCCCC(=O)NC[C@H](O)[C@@H](O)[C@H](O)[C@H](O)CO)nc1CNC1(c2cnccc2-c2ccccc2OC2CC2)CC1` [Compound I-645, 5-({6-[({1-[4-(2-cyclopropoxyphenyl)pyridin-3-yl]cyclopropyl}amino)methyl]-5-methylpyridin-2-yl}sulfanyl)-N-[(2S,3R,4R,5R)-2,3,4,5,6-pentahydroxyhexyl]pentanamide], the EC50 was < 100 nM.
`CN(C[C@H](O)[C@@H](O)[C@H](O)[C@H](O)CO)C(=O)CCCS(=O)(=O)c1ccc(Cl)c(CNC2(c3cnccc3-c3ccccc3OC3CC3)CC2)c1` [Compound I-646, 4-{4-chloro-3-[({1-[4-(2-cyclopropoxyphenyl)pyridin-3-yl]cyclopropyl}amino)methyl]benzenesulfonyl}-N-methyl-N-[(2S,3R,4R,5R)-2,3,4,5,6-pentahydroxyhexyl]butanamide]: the EC50 is < 100 nM.
As for `CN(C[C@H](O)[C@@H](O)[C@H](O)[C@H](O)CO)C(=O)CCC[S+]([O-])c1ccc(Cl)c(CNC2(c3cnccc3-c3ccccc3OC3CC3)CC2)c1` (stereo partly drawn) [Compound I-647, 4-{4-chloro-3-[({1-[4-(2-cyclopropoxyphenyl)pyridin-3-yl]cyclopropyl}amino)methyl]benzenesulfinyl}-N-methyl-N-[(2S,3R,4R,5R)-2,3,4,5,6-pentahydroxyhexyl]butanamide], the EC50 was 126 to 1000 nM.
Consider `CN(C[C@H](O)[C@@H](O)[C@H](O)[C@H](O)CO)C(=O)CCCSc1ccc(Cl)c(COC2(c3cnccc3-c3ccccc3OC3CC3)CC2)c1` [Compound I-648, 4-{[4-chloro-3-({1-[4-(2-cyclopropoxyphenyl)pyridin-3-yl]cyclopropoxy}methyl)phenyl]sulfanyl}-N-methyl-N-[(2S,3R,4R,5R)-2,3,4,5,6-pentahydroxyhexyl]butanamide], for which the EC50 was < 100 nM.
The same measure for `O=C(CCCSc1ccc(Cl)c(CNC2(c3cnccc3-c3ccccc3OC3CC3)CC2)c1)NC[C@H](O)[C@@H](O)[C@H](O)[C@H](O)CO` [Compound I-649, 4-({4-chloro-3-[({1-[4-(2-cyclopropoxyphenyl)pyridin-3-yl]cyclopropyl}amino)methyl]phenyl}sulfanyl)-N-[(2S,3R,4R,5R)-2,3,4,5,6-pentahydroxyhexyl]butanamide]: < 100 nM.
The same measure for `CN(C[C@H](O)[C@@H](O)[C@H](O)[C@H](O)CO)C(=O)CCCSc1ccc(Cl)c(CNC2(c3cnccc3-c3ccccc3OC3CC3)CC2)c1` [Compound I-650, 4-({4-chloro-3-[({1-[4-(2-cyclopropoxyphenyl)pyridin-3-yl]cyclopropyl}amino)methyl]phenyl}sulfanyl)-N-methyl-N-[(2S,3R,4R,5R)-2,3,4,5,6-pentahydroxyhexyl]butanamide]: < 100 nM; for `Cc1ccc(SCCCC(=O)NC[C@H](O)[C@@H](O)[C@H](O)[C@H](O)CO)cc1COC1(c2cnccc2-c2ccccc2OC2CC2)CC1` [Compound I-651, 4-{[3-({1-[4-(2-cyclopropoxyphenyl)pyridin-3-yl]cyclopropoxy}methyl)-4-methylphenyl]sulfanyl}-N-[(2S,3R,4R,5R)-2,3,4,5,6-pentahydroxyhexyl]butanamide]: < 100 nM.
In the case of `Cc1ccc(SCCCC(=O)N(C)C[C@H](O)[C@@H](O)[C@H](O)[C@H](O)CO)cc1COC1(c2cnccc2-c2ccccc2OC2CC2)CC1` [Compound I-652, 4-{[3-({1-[4-(2-cyclopropoxyphenyl)pyridin-3-yl]cyclopropoxy}methyl)-4-methylphenyl]sulfanyl}-N-methyl-N-[(2S,3R,4R,5R)-2,3,4,5,6-pentahydroxyhexyl]butanamide], the EC50 was < 100 nM.
The same measure for `Cc1ccc(SCCCC(=O)NC[C@H](O)[C@@H](O)[C@H](O)[C@H](O)CO)nc1CNC1(c2cnccc2-c2ccccc2OC2CC2)CC1` [Compound I-653, 4-({6-[({1-[4-(2-cyclopropoxyphenyl)pyridin-3-yl]cyclopropyl}amino)methyl]-5-methylpyridin-2-yl}sulfanyl)-N-[(2S,3R,4R,5R)-2,3,4,5,6-pentahydroxyhexyl]butanamide]: 1260 to 10000 nM.
As for `Cc1ccc(SCCCC(=O)N(C)C[C@H](O)[C@@H](O)[C@H](O)[C@H](O)CO)nc1CNC1(c2cnccc2-c2ccccc2OC2CC2)CC1` [Compound I-654, 4-({6-[({1-[4-(2-cyclopropoxyphenyl)pyridin-3-yl]cyclopropyl}amino)methyl]-5-methylpyridin-2-yl}sulfanyl)-N-methyl-N-[(2S,3R,4R,5R)-2,3,4,5,6-pentahydroxyhexyl]butanamide], the EC50 is 1260 to 10000 nM.
Turning to `Cc1cnc(SCCCC(=O)NC[C@H](O)[C@@H](O)[C@H](O)[C@H](O)CO)nc1CNC1(c2cnccc2-c2ccccc2OC2CC2)CC1` [Compound I-655, 4-({4-[({1-[4-(2-cyclopropoxyphenyl)pyridin-3-yl]cyclopropyl}amino)methyl]-5-methylpyrimidin-2-yl}sulfanyl)-N-[(2S,3R,4R,5R)-2,3,4,5,6-pentahydroxyhexyl]butanamide], the EC50 was 12600 to 50100 nM.
For the compound `Cc1cnc(SCCCC(=O)N(C)C[C@H](O)[C@@H](O)[C@H](O)[C@H](O)CO)nc1CNC1(c2cnccc2-c2ccccc2OC2CC2)CC1` [Compound I-656, 4-({4-[({1-[4-(2-cyclopropoxyphenyl)pyridin-3-yl]cyclopropyl}amino)methyl]-5-methylpyrimidin-2-yl}sulfanyl)-N-methyl-N-[(2S,3R,4R,5R)-2,3,4,5,6-pentahydroxyhexyl]butanamide], the EC50 is 12600 to 50100 nM.
The same measure for `Cc1ccc(SCCCCC(=O)NC[C@H](O)[C@@H](O)[C@H](O)[C@H](O)CO)nc1COC1(c2cnccc2-c2ccccc2OC2CC2)CC1` [Compound I-657, 5-{[6-({1-[4-(2-cyclopropoxyphenyl)pyridin-3-yl]cyclopropoxy}methyl)-5-methylpyridin-2-yl]sulfanyl}-N-[(2S,3R,4R,5R)-2,3,4,5,6-pentahydroxyhexyl]pentanamide]: 1260 to 10000 nM; for `Cc1ccc(SCCCCC(=O)N(C)C[C@H](O)[C@@H](O)[C@H](O)[C@H](O)CO)nc1COC1(c2cnccc2-c2ccccc2OC2CC2)CC1` [Compound I-658, 5-{[6-({1-[4-(2-cyclopropoxyphenyl)pyridin-3-yl]cyclopropoxy}methyl)-5-methylpyridin-2-yl]sulfanyl}-N-methyl-N-[(2S,3R,4R,5R)-2,3,4,5,6-pentahydroxyhexyl]pentanamide]: 1260 to 10000 nM; for `CCN(C[C@H](O)[C@@H](O)[C@H](O)[C@H](O)CO)C(=O)CCCSc1ccc(Cl)c(COC2(c3cnccc3-c3ccccc3OC3CC3)CC2)c1` [Compound I-659, 4-{[4-chloro-3-({1-[4-(2-cyclopropoxyphenyl)pyridin-3-yl]cyclopropoxy}methyl)phenyl]sulfanyl}-N-ethyl-N-[(2S,3R,4R,5R)-2,3,4,5,6-pentahydroxyhexyl]butanamide]: < 100 nM.

The values are drawn from patent US12084472B2 (Ardelyx, Inc., priority 2015, dated 2024).
